# Experimental data from US20230027066A1 (Urovant Sciences GmbH, priority 2019, published 2023).
# What was measured:
# Format in all cases: in vivo, human
# [1] = Phase 3 study (75 mg), heart rate and blood pressure changes
# Description: Study assessments of safety included adverse events, physical examinations, vital signs (and weight), and clinical laboratory tests
# Categorical changes are based on 3 consecutive post-baseline visits and patients are counted in all applicable categories (e.g., if a patient has a 12 unit increase then that patient is counted in both ≥5 and ≥10 unit columns).
# Blood Pressure assessments are taken in triplicate and averaged at each visit.
# [2] = Phase 3 study (75 mg), post-void residual urine volume (PVR)
# Description: The risk of acute urinary retention or morbidities related to an increase in Post-Void Residual (PVR) is a concern with antimuscarinic therapy that promotes smooth muscle relaxation by inhibiting acetylcholine-induced smooth muscle contraction. If, during contraction, the bladder cannot generate enough pressure to overcome the outlet resistance in the urethra, either because of poor detrusor contractility or profound obstruction (most commonly from BPH), acute urinary retention or incomplete emptying of the bladder may result.
# The volume of urine that remains in the bladder after voiding (PVR) is an objective measurement that may serve as a proxy for impaired ability to void.
# PVR were performed via ultrasound at the visits indicated in the Schedule of Activities.
# [3] = system: men and women with overactive bladder; assay: Phase 3 study (75 mg), patient-reported outcomes (OAB-q LF, PGI); parameters: OAB-q sleep score, improvement greater than placebo / HRQL Total Score, improvement greater than placebo / OAB-q HRQL Total Score, Active - Placebo LS Means Difference: scale not given here
# Description: Patients completed paper questionnaires at the site at the start of each required study visit to assess patient-perceived symptom relief, symptom bother, and health-related quality of life at the study visits. […] These included the following questionnaires:
# 1. Global Impression Items include Patient Global Impression of Severity (PGI-Severity), Patient Global Impression of Control (PGI-Control), Patient Global Impression of Frequency (PGI-Frequency), Patient Global Impression of Leakage (PGI-Leakage), and Patient Global Impression of Change (PGI-Change).
# 2. Overactive Bladder Questionnaire (OAB-q long form [OAB-q LF], 1-week recall) is a 33-item patient-administered, disease-specific questionnaire that includes a Health-Related QoL (HRQL) scale (25 items) and a Symptom Bother Scale (8 items). The HRQL is a multidomain concept that represents the patient's general perception of the effect of illness and treatment on physical, psychological, and social aspects of life. […] In the present study, the HRQL scale is divided into 4 subscales: Coping, Concern/Worry, Sleep, and Social Interaction. The Coping subscale (also referred to as the coping domain score) was a secondary endpoint, with items scored from 1 (none of the time) to 6 (all the time), with higher scores indicating better QoL. The HRQL total score is calculated by summating the individual HRQL subscale scores. The Symptom Bother Scale items are scored from 1 (not at all) to 6 (a very great deal), with higher Symptom Bother scores indicating greater symptom severity. The instrument was developed and validated in both continent and incontinent OAB patients, including both men and women.
# With the exception of the symptom bother score, a responder was defined as having a change from baseline ≥10. For symptom bother score, a responder was defined as having a change from baseline […]. A higher proportion of patients represented a favorable response.
# [4] = system: men and women with overactive bladder; assay: extension study, OAB-q LF coping subscore at Week 52; conditions: for OAB-q LF Coping Subscore, Week 52 Mean: Full Analysis Set Extension; for OAB-q LF Coping Subscore, Change from Baseline Mean at Week 52: baseline from parent study
# [5] = 3 consecutive post-baseline visits
# [6] = Males with medical history of BPH
# [7] = 50% Total Incontinence Responders, Week 12
# [8] = Week 12, responder = change from baseline ≥10
# [9] = vibegron 75 mg/day, 12-week treatment
smiles,measurement,setting,value
"O=C(Nc1ccc(C[C@@H]2CC[C@H]([C@H](O)c3ccccc3)N2)cc1)[C@@H]1CCc2nccc(=O)n21 [Vibegron, (6S)-N-[4-[[(2S,5R)−5-[(R)-hydroxy(phenyl)methyl]pyrrolidin−2-yl]methyl]phenyl]−4-oxo−7,8-dihydro−6H-pyrrolo[1,2-a]pyrimidine−6-carboxamide]","Diastolic BP categorical change from baseline ≥5 mm Hg, patients",[1]; [5],7.0%
same,"Diastolic BP categorical change from baseline ≥10 mm Hg, patients",[1]; [5],1.3%
same,"Diastolic BP categorical change from baseline ≥15 mm Hg, patients",[1]; [5],0.2%
same,"Heart Rate categorical change from baseline ≥5 bpm, patients",[1]; [5],8.6%
same,"Heart Rate categorical change from baseline ≥10 bpm, patients",[1]; [5],1.8%
same,"Heart Rate categorical change from baseline ≥15 bpm, patients",[1]; [5],0.4%
same,"Systolic BP categorical change from baseline ≥5 mm Hg, patients",[1]; [5],11.2%
same,"Systolic BP categorical change from baseline ≥10 mm Hg, patients",[1]; [5],4.2%
same,"Systolic BP categorical change from baseline ≥15 mm Hg, patients",[1]; [5],1.3%
same,"Diastolic BP, 12-week change (95% CI)",[1]; Hypertensive at baseline,"−3.2 (−6.3, −0.1) mm Hg"
same,"Heart Rate, 12-week change",[1]; Hypertensive at baseline,+2.2 beats/minute
same,"Systolic BP, 12-week change (95% CI)",[1]; Hypertensive at baseline,"−9.1 (−13.8, −4.4) mm Hg"
same,"Diastolic BP, 12-week change (95% CI)",[1]; Normotensive at baseline,"+0.5 (−0.2, +1.1) mm Hg"
same,"Heart Rate, 12-week change",[1]; Normotensive at baseline,+0.4 beats/minute
same,"Systolic BP, 12-week change (95% CI)",[1]; Normotensive at baseline,"+1.0(0, +2.0) mm Hg"
same,"Diastolic BP, Mean Change from Baseline at Week 12 (SD)","[1]; Week 12, all patients",0.2 (7.43) mm Hg
same,"Heart Rate, Mean Change from Baseline at Week 12","[1]; Week 12, all patients",0.5 beats/minute
same,"Systolic BP, Mean Change from Baseline at Week 12","[1]; Week 12, all patients",0.2 mm Hg
same,"PVR category at Week 12 <100 mL, patients",[2]; Females,96.8%
same,"PVR category at Week 12 ≥100 mL to <200 mL, patients",[2]; Females,3.0%
same,"PVR category at Week 12 ≥200 mL to <350 mL, patients",[2]; Females,0.2%
same,"PVR category at Week 12 ≥350 mL, patients",[2]; Females,0
same,"PVR, Mean Change from Baseline at Week 12 (SD)",[2]; Females,0.1 (36.19) mL
same,"PVR category at Week 12 <100 mL, patients",[2]; Males,89.7%
same,"PVR category at Week 12 ≥100 mL to <200 mL, patients",[2]; Males,7.7%
same,"PVR category at Week 12 ≥200 mL to <350 mL, patients",[2]; Males,2.6%
same,"PVR category at Week 12 ≥350 mL, patients",[2]; Males,0
same,"PVR, Mean Change from Baseline at Week 12 (SD)",[2]; Males,2.2 (48.45) mL
same,"PVR category at Week 12 <100 mL, patients",[2]; [6],96.6%
same,"PVR category at Week 12 ≥100 mL to <200 mL, patients",[2]; [6],0%
same,"PVR category at Week 12 ≥200 mL to <350 mL, patients",[2]; [6],3.4%
same,"PVR category at Week 12 ≥350 mL, patients",[2]; [6],0
same,"PVR, Mean Change from Baseline at Week 12 (SD)",[2]; [6],−3.4 (42.45) mL
same,"PVR category at Week 12 <100 mL, patients",[2]; all patients,89.9%
same,"PVR category at Week 12 ≥100 mL to <200 mL, patients",[2]; all patients,3.5%
same,"PVR category at Week 12 ≥200 mL to <350 mL, patients",[2]; all patients,0.6%
same,"PVR category at Week 12 ≥350 mL, patients",[2]; all patients,0
same,"PVR, Mean Change from Baseline at Week 12 (SD)",[2]; all patients,0.4 (38.27) mL
same,"OAB-q Coping Subscore, Change from baseline at week 12, LS Means (SE)",[3]; [7],20.3 (1.35)
same,"OAB-q Coping Subscore, Mean",[3]; [7],83.08 (18.924)
same,"OAB-q Symptom Bother Subscore, Change from baseline at week 12, LS Means",[3]; [7],−25.5
same,"OAB-q Symptom Bother Subscore, Mean",[3]; [7],21.18
same,"Change from Baseline in PGI-Control, LS Mean","[3]; 75% UUI Responders, Week 4",−0.8 (0.06)
same,"PGI-Control, Mean (SD)","[3]; 75% UUI Responders, Week 4",2.42 (0.887)
same,"Change from Baseline in PGI-Control, LS Mean","[3]; 75% UUI Responders, Week 8",−1.0 (0.06)
same,"PGI-Control, Mean (SD)","[3]; 75% UUI Responders, Week 8",2.25 (0.863)
same,"Change from Baseline in PGI-Control, LS Mean","[3]; 75% UUI Responders, Week 12",−1.2 (0.06)
same,"OAB-q Coping Subscore, Change from baseline at week 12, LS Means (SE)","[3]; 75% UUI Responders, Week 12",19.7 (1.48)
same,"OAB-q Coping Subscore, Mean (SD)","[3]; 75% UUI Responders, Week 12",83.99 (19.232)
same,"OAB-q Symptom Bother Subscore, Change from Baseline at Week 12, LS Means (SE)","[3]; 75% UUI Responders, Week 12",−25.8 (1.38)
same,"OAB-q Symptom Bother Subscore, Mean (SD)","[3]; 75% UUI Responders, Week 12",20.13 (15.862)
same,"PGI-Control, Mean (SD)","[3]; 75% UUI Responders, Week 12",2.02 (0.784)
same,"OAB-q Concern Subscore, Week 12 Mean (SD)",[3]; Week 12,80.58 (21.867)
same,"OAB-q Concern responders, Difference from Placebo",[3]; Week 12,5.9
same,"OAB-q Concern, Active - Placebo LS Means Difference",[3]; Week 12,5.0
same,"OAB-q Concern, change from baseline LS Means (SE)",[3]; Week 12,15.3 (1.24)
same,"OAB-q Coping Score, Active - Placebo LS Means Difference",[3]; Week 12,3.6
same,"OAB-q Coping Score, change from baseline LS Means (SE)",[3]; Week 12,16.5 (1.31)
same,"OAB-q Coping Sub score, Week 12 Mean (SD)",[3]; Week 12,77.26 (23.242)
same,"OAB-q Coping responders, Difference from Placebo",[3]; Week 12,7.5
same,"OAB-q HRQL Total Score, Active - Placebo LS Means Difference",[3]; Week 12,3.8
same,"OAB-q HRQL Total Score, change from baseline LS Means (SE)",[3]; Week 12,14.6 (1.12)
same,"OAB-q Sleep Subscore, Week 12 Mean (SD)",[3]; Week 12,75.59 (23.883)
same,"OAB-q Sleep responders, Difference from Placebo",[3]; Week 12,2.1
same,"OAB-q Sleep, Active - Placebo LS Means Difference",[3]; Week 12,4.5
same,"OAB-q Sleep, change from baseline LS Means (SE)",[3]; Week 12,14.9 (1.34)
same,"OAB-q Social Interaction Subscore, Week 12 Mean (SD)",[3]; Week 12,88.57 (18.011)
same,"OAB-q Social Interaction responders, Difference from Placebo",[3]; Week 12,5.4
same,"OAB-q Social Interaction, Active - Placebo LS Means Difference",[3]; Week 12,1.5
same,"OAB-q Social Interaction, change from baseline LS Means (SE)",[3]; Week 12,10.2 (0.97)
same,"OAB-q Symptom Bother Subscore, Week 12 Mean (SD)",[3]; Week 12,27.78 (19.816)
same,"OAB-q Symptom Bother responders, Difference from Placebo",[3]; Week 12,11.8
same,"OAB-q Symptom Bother, Active - Placebo LS Means Difference",[3]; Week 12,−6.9
same,"OAB-q Symptom Bother, change from baseline LS Means (SE)",[3]; Week 12,−19.6 (1.24)
same,"OAB-q Total HRQL Score, Week 12 Mean (SD)",[3]; Week 12,80.12 (20.175)
same,"OAB-q Total HRQL responders, Difference from Placebo",[3]; Week 12,5.5
same,"OAB-q Symptom Bother responders, %","[3]; Week 12, responder = change from baseline ≤−10",(70.1) %
same,"OAB-q Concern responders, %",[3]; [8],(55.7) %
same,"OAB-q Coping responders, %",[3]; [8],(61.9) %
same,"OAB-q Sleep responders, %",[3]; [8],(53.9) %
same,"OAB-q Total HRQL responders, %",[3]; [8],(54.1) %
same,"HRQL Total Score, improvement greater than placebo",[3]; [9],3.8
same,"OAB-q coping domain score, improvement greater than placebo",[3]; [9],3.6
same,"OAB-q sleep score, improvement greater than placebo",[3]; [9],4.5
same,"OAB-q symptom bother score, decrease more than placebo",[3]; [9],6.9
same,"OAB-q LF Coping Subscore, Week 52 Mean",[4]; 40-Week treatment group,86.3
same,"OAB-q LF Coping Subscore, Change from Baseline Mean at Week 52",[4]; 40-Week treatment group,28.3
same,"OAB-q LF Coping Subscore, Week 52 Mean",[4]; 52-Week treatment group,83.6
same,"OAB-q LF Coping Subscore, Change from Baseline Mean at Week 52",[4]; 52-Week treatment group,27.1
